Reference: ChEMBL document CHEMBL3044987, “7-chloro-3-(substituted benzylidene/phenyl ethylidene amino)-2-phenylquinazolin-4(3H)-ones: synthesis, antimicrobial and antitubercular evaluation” (2012)

Experiments:
Format in all cases: functional
Staphylococcus aureus = assay: Antibacterial activity against Staphylococcus aureus ATCC 6538 after 24 hr by disk diffusion method
Pseudomonas aeruginosa = assay: Antibacterial activity against Pseudomonas aeruginosa ATCC 27853 after 24 hr by disk diffusion method
Escherichia coli = assay: Antibacterial activity against Escherichia coli ATCC 25922 after 24 hr by disk diffusion method

| SMILES | inhibition zone (IZ) (Staphylococcus aureus) | inhibition zone (IZ) (Pseudomonas aeruginosa) | inhibition zone (IZ) (Escherichia coli) |
| --- | --- | --- | --- |
| O=C(O)c1cn(C2CC2)c2cc(N3CCNCC3)c(F)cc2c1=O [CIPROFLOXACIN] | 17 mm | 18 mm |  |
| COc1cc(/C=N/n2c(-c3ccccc3)nc3cc(Cl)ccc3c2=O)ccc1O | 15 mm | 5 mm | 21 mm |
| C/C(=N\n1c(-c2ccccc2)nc2cc(Cl)ccc2c1=O)c1ccc(O)cc1 | 15 mm | 4 mm | 22 mm |
| C/C(=N\n1c(-c2ccccc2)nc2cc(Cl)ccc2c1=O)c1ccc(Cl)cc1 | 15 mm | 4 mm | 22 mm |
